Patent US7067633B2, “Targeting cellular entry, cell survival, and pathogenicity by dynein light chain 1/PIN in human cells” (Board of Regents, The University of Texas System, priority 2003, dated 2006)

Experiments:
Format in all cases: cell-based, human
DLC1-ER interaction = assay: Coimmunoprecipitation of DLC1 with ER
Description: In vitro-translated ^35ER were incubated with GST-DLC1, and analyzed by SDS-PAGE and autoradiography. FIG. 13B: Identification of ER domains that interact with DLC1. GST-ER fusion proteins containing different deletion constructs were incubated with in vitro-translated 35S-DLC1 (aa 1-89), and binding was analyzed by GST pull-down assay. FIG. 13C: Mapping of the ER-binding region in DLC1. GST-fusions of various DLC1 deletion constructs were incubated with in vitro-translated ^35S-ER, and binding was analyzed by GST pull-down assay. […] Cell lysates from Ishikawa cells was immunoprecipitated (IP) with anti-ERá mAb and immunoblotted with anti-DLC1 or ER Abs. […] Cell lysates from MCF-7/TAM-sen or Ishikawa cells were treated with Tam (10^−9M) for 24 h, and IP with anti-ERá mAb and immunoblotted with anti-DLC1 or ER Abs. […] MCF-7/DLC1 cells were treated with or without Dox for 24 h and then treated with E2 (10^−9M) or Tam (10^−8M) for 24 h, and IP with anti-ERá mAb and immunoblotted with anti-DLC1 or ER Abs. FIG. 13G: Characterization of MCF-7 cells expressing T7-DLC1-Ser88A mutant under a tetracycline-inducible promoter. […] MCF-7/DLC1 and MCF-7/DLC1-Ser88A cells were treated with or without Dox for 24 h and cell lysates were IP with anti-ERá mAb and blotted with anti-DLC1, ERá and T7 Abs.
To this end, MCF-7 cells expressing a T7-DLC1 mutant in which Ser88 and amino acid 89 were deleted under a tet-inducible promoter (MCF-7/DLC1-1-87 mutant) were generated (FIG. 13G).

[1] = tested on: ER transactivation (ERE-luc); assay: ERE-luc transactivation assay
Description: MCF-7/DA-Pak1 cells were transfected with ERE-luc, treated with or without Dox for 24 h and then with or without E2 (10^−9M) and/or Tam (10^−8M) for 24 h, and ERE-luc activity was measured. […] FIG. 20D: MCF-7/TAM-Sen and MCF-7/TAMR1 cells were transfected with ERE-luc and treated with E2 or Tam for 24 h and ERE-luc activity was measured. […] FIG. 20L: Ishikawa cells were cotransfected with Pak1 siRNA control or Pak1 siRNA wt and treated with or without Tam (10^−8M) for 24 h and ERE-luc activity was measured.
Ishikawa and MCF-7/TAMR1 cells were transfected with control or Pak1 siRNA for 48 h and then with ERE-luc for 24 h and treated with E2 (10^−9M) for 24 h and ERE-luc activity was measured. […] Ishikawa cells were treated with control or and Pak1 and DLC siRNA for 48 h and then transfected with ERE-luc and treated with Tam (10^−8M) for 24 h and ERE-luc activity was measured.

Pak1 = Pak1 kinase activity in cell lysates; settings: Ishikawa cells
Excerpt: FIGS. 20A–20L—Pak1 activation confers tamoxifen-resistance. FIG. 20A: Pak1 activation promoted ER-transactivation function.

[2] = tested on: Ishikawa and MCF-7/TAMR1 cells; assay: Growth of Tam-resistant cells (cell number)
Description: FIGS. 22A–22F—DLC1 deregulation potentiates ligand-induced growth and anchorage-independence. FIG. 22A: DLC1 upregulation potentiates growth stimulation by E2 in a Tam-insensitive manner. MCF-7/DLC1 cells were treated with or without Dox and then with E2 (10^−9M) or Tam (10^−8M) for 5 days, and the cell number was determined. FIG. 22B: DLC1 upregulation promotes anchorage independence. […] FIG. 22C: DLC1 expression supports optimum growth of Tam-resistant cells. Ishikawa and MCF-7/TAMR1 cells were transfected with control or DLC siRNA for 48 h and then treated with or without Tam (10^−8M) for 96 h, and the cell number was determined. FIG. 22D: DLC1-mediated potentiation of ER transactivation depends on the Pak1 status in Ishikawa and MCF-7/TAMR1 cell lines. Ishikawa and MCF-7/TAMR1 cells were transfected with control or Pak1 siRNA for 48 h and then with ERE-luc for 24 h and treated with E2 (10^−9M) for 24 h and ERE-luc activity was measured. FIG. 22E: Pak1 expression level influences the growth of Tam resistant cells. Ishikawa and MCF-7/TAMR1 cells were treated with control or Pak1 siRNA for 48 h and treated with or without Tam (10^−8M) for 4 days, and cell number was determined. FIG. 22F: Co-downregulation of Pak1 and DLC1 in Tam-resistant cells restores Tam-sensitivity. […]

pS2 gene chromatin = assay: Chromatin immunoprecipitation (ChIP), pS2 promoter; settings: DLC1 overexpression in MCF-7/DLC1 cells
Excerpt: FIG. 14A: Characterization of MCF-7 cells expressing T7-DLC1 under a tet-inducible promoter. Time and dose dependent upregulation of Dox-mediated T7-DLC1 expression. FIG. 14B: DLC1 deregulation potentiates stimulation of Bcl-2 by E2 and by Tam. […] FIG. 14C: DLC1 upregulation suppress Tam ability to inhibit E2-mediated ER transactivation. MCF-7/DLC1 cells were transfected with ERE-luc. […] FIG. 14D: DLC1 deregulation potentiated E2-mediated stimulation of ERE-luc activity in Ishikawa and MCF-7/TAMR1 cells. […] FIG. 14E: Recruitment of DLC1 and ERá to the pS2 promoter chromatin. MCF-7/DLC1 cells were treated with or without Dox for 24 and then with E2 (10^−9M) for 1 h. Chromatin lysates were immunoprecipitated with anti-ER-á or anti-T7 (to detect T7-DLC1) antibodies. Upper panels show the PCR analysis of 304 bp pS2 promoter fragment associated with ER or T7-DLC1.
To delineate the significance of the DLC1 in the modulation of ER transactivation, the effect of T7-DLC1 deregulation on the recruitment of ER to the ER-target pS2 gene promoter chromatin using a chromatin immunoprecipitation (ChIP) assay with anti-ERα or anti-T7 antibodies was examined. […] When the above ChIP studies were repeated using T7 antibody to isolate T7-DLC1, it was observed that both basal and ligand-activated DLC1 were also recruited to pS2 gene chromatin (FIG. 14E). […]

| Compound | DLC1-ER interaction (DLC1-ER interaction; Ishikawa cells, Tam 24 h) | DLC1-ER interaction (DLC1-ER interaction; MCF-7/DLC1 cells with doxycycline) | DLC1-ER interaction (DLC1-ER interaction; MCF-7/TAM-Sen cells, Tam 24 h) | inhibitory effects on ERE-luc activity ([1]; Ishikawa cells, both DLC1 and Pak1 knocked down) | Pak1-mediated ERE-stimulation ([1]; MCF-7/DA-Pak1 cells) | Pak1 kinase activity (Pak1) | growth of cells with downregulated DLC ([2]; Tam 96 h) | growth of cells with downregulated Pak1 ([2]; Tam 4 days) | ER interaction with the pS2 gene chromatin (pS2 gene chromatin) | interaction with ER (DLC1-ER interaction; MCF-7 cells, tet-inducible T7-tagged mutant) |
| --- | --- | --- | --- | --- | --- | --- | --- | --- | --- | --- |
| CC/C(=C(\c1ccccc1)c1ccc(OCCN(C)C)cc1)c1ccccc1 [tamoxifen] | substantially enhanced | modestly, but reproducibly, increased | not | restored the inhibitory effects | not inhibited | upregulated | further reduced the growth | no further significant effect | enhanced ER interaction |  |
| DLC1/PIN^del 88-89: DLC1/PIN mutant in which Ser88 and amino acid 89 were deleted |  |  |  |  |  |  |  |  |  | failed to detect any interaction |
